From PubChem BioAssay (NCI)
“And” between values parts separate entries of the source, which are not always exact repeats. Equal values may be shown once.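 Each compound was tested at five concentrations against cells in 96-well plates for 48 hours. GI50 is the concentration that inhibits growth by half. TGI marks complete inhibition of growth.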

Assays:
Assay in all cases: NCI tumour cell line growth inhibition, 48 h
[1] = test system: DU-145 prostate
[2] = test system: A498 renal
[3] = test system: UACC-257 melanoma
[4] = test system: MCF7 breast
[5] = test system: EKVX NSCLC
[6] = test system: LOX IMVI melanoma
[7] = test system: UO-31 renal
[8] = test system: SK-OV-3 ovarian
[9] = test system: K-562 leukemia
[10] = test system: OVCAR-3 ovarian

Compound | TGI [1] | TGI [2] | TGI [3] | TGI [4] | TGI [5] | TGI [6] | TGI [7] | TGI [8] | TGI [9] | TGI [10] | GI50 [1] | GI50 [2] | GI50 [3] | GI50 [8] | GI50 [4] | GI50 [5] | GI50 [10] | GI50 [7] | GI50 [9] | GI50 [6]
COC(=O)NC1C(C)OC(OC2C/C=C(/C)C3C=CC4C(OC5CC(OC6CC(OC7CC(O)C(O)C(C)O7)C(OC7CC(O)C(OC)C(C)O7)C(C)O6)C(O)C(C)O5)C(C)CC(C)C4C3(C)/C(O)=C3\C(=O)OC4(CC(C)C(CO)=CC4/C=C\2C)C3=O)CC1(C)[N+](=O)[O-] (stereo not given) | 19.6 µM | 57.9 µM | 57.8 µM | > 100 µM | 42.8 µM | 14.8 µM | 51.3 µM |  |  |  |  |  |  |  |  |  |  |  |  | 
CC1C(=O)C(C)C(c2ccco2)N(N=O)C1c1ccco1 (stereo not given) |  | > 100 µM | > 100 µM | > 100 µM | > 100 µM | > 100 µM | > 100 µM | > 100 µM | > 100 µM | > 100 µM |  |  |  |  |  |  |  |  |  | 
Nc1nc(OCC2CCCCC2)c2[nH]cnc2n1 | > 64.3 µM | 54.4 µM | 61.8 µM | > 100 µM | 61.9 µM | 37.7 µM | 38.2 µM | 68.5 µM | > 100 µM | 35.7 µM |  |  |  |  |  |  |  |  |  | 
Cc1[nH]n(-c2ccccc2)c(=O)c1C(N(CCc1ccccc1)C1=NCC(C)S1)(C(F)(F)F)C(F)(F)F (stereo not given) | > 100 µM | 30.9 µM | 56.7 µM | > 100 µM | 36.4 µM | > 100 µM | 25.3 µM | 95.1 µM | > 100 µM | > 100 µM |  |  |  |  |  |  |  |  |  | 
CC(=O)OCC1OC(Oc2cc(C)c(O)cc2C/C=C(\C)CC/C=C(\C)C[C@@H](C=C(C)C)OC(C)=O)C(O)C(OC(C)=O)C1OC(C)=O (stereo not given in full) | > 50 µM | 41.9 µM | 39.8 µM | > 50 µM | > 50 µM | 47.3 µM | > 50 µM | > 50 µM | 35.4 µM | > 50 µM |  |  |  |  |  |  |  |  |  | 
c1c2c(cc3c1OCO3)-c1cc3ccc4c(c3c[n+]1CC2)OCO4 | > 12.5 µM | > 12.5 µM | > 12.5 µM | > 12.5 µM | > 12.5 µM | > 8.44 µM | > 12.5 µM | > 12.5 µM | > 12.5 µM | > 3.26 µM |  |  |  |  |  |  |  |  |  | 
O=C(NC(Cc1ccc(I)cc1)C(=O)O)c1ccc(Cl)cc1 (stereo not given) |  | > 100 µM | > 100 µM | > 100 µM | > 100 µM | > 100 µM | > 100 µM | > 100 µM | > 100 µM | > 100 µM |  |  |  |  |  |  |  |  |  | 
CN(C)c1ccc(/C=c2/c3ccccc3n3c2cc(NC(=O)NCCC[N+](C)(C)C)[n+]3C)cc1 | > 100 µM | > 100 µM | > 100 µM | > 100 µM | > 100 µM | > 100 µM | > 100 µM | > 100 µM | > 100 µM | > 100 µM |  |  |  |  |  |  |  |  |  | 
Oc1ccc(-c2nc3cc(F)ccc3s2)cc1 | 41.3 µM |  | 69.6 µM | 28.5 µM | 38 µM | 33.3 µM | 49.9 µM | 50.7 µM | 72.3 µM | 41.5 µM |  |  |  |  |  |  |  |  |  | 
CNC(C)Cc1ccccc1OC (stereo not given) |  | > 100 µM | > 100 µM |  | > 100 µM | > 100 µM | > 100 µM | > 100 µM | > 100 µM | > 100 µM |  |  |  |  |  |  |  |  |  | 
C[n+]1c2ccccc2c(CNC(CS)C(=O)O)c2ccccc21 (stereo not given) |  | 53.8 µM | > 100 µM |  | > 100 µM |  | 58 µM | 56.8 µM | > 100 µM | 62 µM |  |  |  |  |  |  |  |  |  | 
O=c1c2cc(S(=O)(=O)O)ccc2nc(COc2ccc(Oc3ccc(Cl)cc3Cl)cc2)n1C(=S)Nc1ccc(Cl)cc1 | 87 µM | 52.5 µM | 60.5 µM | 38.3 µM | 56.6 µM | 32 µM | 29.7 µM | 49 µM | 30.8 µM | 51.7 µM |  |  |  |  |  |  |  |  |  | 
CCSc1nc(-c2cccs2)nc2ccc(I)cc12 | > 100 µM |  | > 100 µM | > 100 µM | > 100 µM | > 100 µM | > 100 µM |  | > 100 µM | > 100 µM |  |  |  |  |  |  |  |  |  | 
O=C1OC2(OC2c2ccc(Cl)cc2)c2ccccc21 (stereo not given) |  |  |  |  | > 100 µM | 34 µM | > 100 µM | > 100 µM | > 100 µM | > 100 µM |  |  |  |  |  |  |  |  |  | 
COC(=O)/C=C1\CCCN1CCc1cc2c(cc1CC#N)OCO2 | > 100 µM | 80.2 µM | > 100 µM | > 100 µM | > 100 µM | > 100 µM | > 100 µM | > 100 µM | > 100 µM | 69.1 µM |  |  |  |  |  |  |  |  |  | 
COC(=O)c1ccccc1C1=C([N+](=O)[O-])C(c2cccc(Br)c2)C(C#N)=C(N)O1 (stereo not given) | > 100 µM |  | > 100 µM |  | 97.7 µM | 38.1 µM |  | > 100 µM | 76.5 µM | 51.7 µM |  |  |  |  |  |  |  |  |  | 
CC1(C=O)CCC23COC4(CCC5C6(C)CCC(OC7OCC(OC8OC(CO)C(O)C(OC9OC(CO)C(O)C(O)C9O)C8OC8OCC(O)C(O)C8O)C(O)C7OC7OC(CO)C(O)C(O)C7O)C(C)(C)C6CCC5(C)C4(C)CC2O)C3C1 (stereo not given) | 2.77 µM | 1.94 µM |  | 2.07 µM | 2.89 µM |  | 2.8 µM | 2.57 µM | > 100 µM | 2.79 µM |  |  |  |  |  |  |  |  |  | 
COc1cc([N+](=O)[O-])ccc1NC(=O)c1cccc([N+](=O)[O-])c1O |  | 51.7 µM | 63.7 µM |  | 78.8 µM | > 100 µM | 56.5 µM | 77.9 µM | > 100 µM | > 100 µM |  |  |  |  |  |  |  |  |  | 
CC1(O)COCCCCOc2c(CN)cccc2NC(=O)c2nc(cnc2N)-c2ccc(cc2)S(=O)(=O)C(C)(C)C1 (stereo not given) | 2.04 µM | 1.43 µM | 3.35 µM | 1.89 µM | 3.38 µM |  | 2.31 µM | 2.8 µM |  | 2.56 µM | 0.0388 µM | 0.0163 µM | 1.76 µM | 1.37 µM | < 0.01 µM | 1.68 µM | 1.23 µM | 1.06 µM |  | 
NCCNCCNc1ccc(NCCNCCN)c2c1C(=O)c1c(O)ccc(O)c1C2=O | > 100 µM | > 100 µM | > 100 µM | > 100 µM | > 100 µM | > 100 µM | > 100 µM | > 100 µM | > 100 µM | > 100 µM |  |  |  |  |  |  |  |  |  | 
CCc1ccc2c(c1)C(=O)c1c-2n(CCCN)c(=O)c2cc([N+](=O)[O-])ccc12 | 2.05 µM |  | 3.42 µM | 1.6 µM | 3.11 µM | 2.62 µM | 2.69 µM |  | 0.756 µM | 2.96 µM | 0.775 µM |  | 1.88 µM |  | 0.362 µM | 1.67 µM | 1.58 µM | 1.38 µM | 0.243 µM | 1.19 µM
CCOC(=O)Nc1cc2c(c(N)n1)N=C(c1ccc3ccccc3c1)CN2 | > 100 µM | 35.2 µM | > 100 µM | > 100 µM | > 100 µM | 8.1 µM | > 62.9 µM | 18.9 µM | 10.3 µM | 10.7 µM |  |  |  |  |  |  |  |  |  | 
c1ccc([P+](c2ccccc2)(c2ccccc2)c2ccc(-c3ccc([P+](c4ccccc4)(c4ccccc4)c4ccccc4)cc3)cc2)cc1 | > 100 µM | 10.3 µM | 63 µM | > 100 µM | > 100 µM | 51.9 µM |  | > 100 µM | > 100 µM | 52.4 µM |  |  |  |  |  |  |  |  |  | 
CN(C)CCCN1c2ccc([N+](=O)[O-])cc2CCc2cc([N+](=O)[O-])ccc21 | 30.2 µM and 33 µM | 22.5 µM | 28.7 µM and 27.4 µM | 31.2 µM | 28.5 µM and 29.4 µM | 32.4 µM and 26.5 µM | 37.4 µM and 25 µM | 32.4 µM and 29 µM | 59.5 µM and 31.2 µM | 30.2 µM and 30.5 µM |  |  |  |  |  |  |  |  |  | 
CO/N=C(\C)c1cccc(Nc2nc3ccccc3c3occc23)c1 | 30.8 µM | 17.3 µM | 3.69 µM | 36.8 µM | 26.8 µM | 31.6 µM |  | 27.1 µM | 38.2 µM | 33.1 µM |  |  |  |  |  |  |  |  |  | 
N=C(N)SCc1cccc([N+](=O)[O-])c1 |  | > 74 µM | > 75 µM | > 83.8 µM | > 100 µM | > 100 µM | > 77.8 µM | > 81.4 µM | > 62.3 µM | 39.9 µM |  |  |  |  |  |  |  |  |  | 
CCO[C@]12CCC[C@H]1[C@@H]1C(=O)c3ccccc3C(=O)C1=C(C)O2 | > 100 µM | > 100 µM | > 100 µM | 35.8 µM | > 100 µM | 44.7 µM | > 100 µM | > 100 µM | 94.7 µM | 50.3 µM |  |  |  |  |  |  |  |  |  | 
O=C(CSc1nc2ccc(I)cc2c(=O)n1Cc1ccccc1)NN1C(=O)c2ccccc2C1=O | 95.1 µM | 35.7 µM | 51.4 µM | > 100 µM | 42.2 µM | 44.9 µM | 6.14 µM | 29.1 µM | > 100 µM | 28.6 µM |  |  |  |  |  |  |  |  |  | 
CCOP(=O)(OCC)C(Nc1cccc(F)c1)c1ccc(N(C)C)cc1 (stereo not given) | > 100 µM | > 100 µM | > 100 µM | > 100 µM | > 100 µM | > 100 µM | > 100 µM | > 100 µM | > 100 µM | > 100 µM |  |  |  |  |  |  |  |  |  | 
Cc1c2cc[n+](C)cc2c(C)c2c1oc1ccccc12 | 64.7 µM | > 69 µM | 17.9 µM | 70.5 µM | > 42.3 µM | 19.7 µM | > 100 µM | 57.8 µM | 34.9 µM | 16.7 µM |  |  |  |  |  |  |  |  |  | 
